{"source": "patent US20060111396A1", "about": "“4-Phenyl substituted tetrahydroisoquinolines and use thereof to block reuptake of norepinephrine, dopamine and serotonin” (AMR Technology, Inc., priority 2004, published 2006)", "note": "Where “and” joins values, the source holds several entries; their conditions need not be identical. Equal values may be shown once. Where a name gives a salt, the structure may show the parent alone."}
{"system": "dopamine transporter protein over the norepinephrine transporter protein", "settings": "selectivity for dopamine transporter protein over norepinephrine transporter protein; cited from earlier work"}
{"compound": "COC(=O)C(c1ccccc1)C1CCCCN1", "note": "(stereo not drawn) [Methylphenidate]", "DAT/NET Ki ratio": 0.1}
{"system": "not given", "settings": "not given"}
{"compound": "CN1Cc2cc(C(F)(F)F)ccc2C(c2ccccc2)C1", "note": "(stereo not drawn)", "melting point": "257 to 275 °C"}
{"compound": "Cc1ccc2c(c1)C(C)N(C)CC2c1ccccc1", "note": "(stereo not drawn)", "melting point": "87 to 89 °C"}
{"compound": "FCc1ccc2c(c1CF)CN(CF)CC2c1ccccc1", "note": "(stereo not drawn)", "melting point": "108 to 113 °C"}
{"compound": "Cc1c(F)ccc2c1CN(C)CC2c1ccccc1", "note": "(stereo not drawn)", "melting point": "185 to 186 °C"}
{"compound": "COc1c(C)ccc2c1CN(C)CC2c1ccccc1", "note": "(stereo not drawn)", "melting point": "130 to 131 °C"}
{"compound": "Cc1ccc2c(c1O)CN(C)CC2c1ccccc1", "note": "(stereo not drawn)", "melting point": "260 to 261 °C"}
{"compound": "CN1Cc2cc(OC(F)(F)F)ccc2C(c2ccccc2)C1", "note": "(stereo not drawn)", "melting point": "150 to 151 °C (dec.)"}
{"compound": "CN1Cc2cc(Oc3ccccc3)ccc2C(c2ccccc2)C1", "note": "(stereo not drawn)", "melting point": "175 to 176 °C (dec.)"}
{"compound": "CN1Cc2cc(OCc3ccccc3)ccc2C(c2ccccc2)C1", "note": "(stereo not drawn)", "melting point": "155 to 156 °C"}
{"compound": "Cc1ccc2c(c1)CN(C)CC2c1ccc(F)c(C)c1", "note": "(stereo not drawn)", "melting point": "174 to 175 °C"}
{"compound": "CNCc1cccc2c1CN(C)CC2c1ccccc1", "note": "(stereo not drawn)", "melting point": "278 to 282 °C"}
{"compound": "CN1Cc2c(CO)cccc2C(c2ccccc2)C1", "note": "(stereo not drawn)", "melting point": "144 to 146 °C"}
{"compound": "CN1Cc2ccccc2C(c2cc(F)cc(F)c2)C1", "note": "(stereo not drawn) (as salt: HCl)", "melting point": "230 to 233 °C and 230 to 235 °C"}
{"compound": "Cc1cc(F)c2c(c1)C(C)N(C)C(F)C2c1ccccc1", "note": "(stereo not drawn) (as salt: HCl)", "melting point": "194 to 197 °C (dec.)"}
{"compound": "CNCc1ccc2c(c1F)CN(C)CC2c1ccccc1", "note": "(stereo not drawn) (as salt: HCl)", "melting point": "185 to 205 °C"}
{"compound": "CN1Cc2cc(CO)ccc2C(c2ccccc2)C1", "note": "(stereo not drawn) (as salt: HCl)", "melting point": "237 to 240 °C (dec.)"}
{"compound": "Cc1ccc2c(c1F)CN(C)CC2c1ccccc1", "note": "(stereo not drawn) (as salt: hydrochloride)", "melting point": "215 to 216 °C"}
